Read-outs that look alike come from different tables or passages of the source. Residues, ends and D or L forms follow the SMILES beside them. *: point of attachment. αGalNAc = CC(=O)N[C@@H]1[C@@H](O)[C@@H](O)[C@@H](CO)O[C@@H]1*; X2 = c1ccc2nc(C*)ccc2c1; X1 = c1csc(C*)c1
How the values were obtained:
GalNAc-T2 [1] = target: T1, GalNAc-T2 (Homo sapiens, UniProt Q10471); test: Radiometric GalNAc-T2 inhibition assay with labeled UDP-GalNAc donor and MUC1a acceptor peptide; type: biochemical; conditions: for Relative inhibitory activity against GalNAc-T2: normalized concentration of 500 μM
T1 construct: made in house; host or cells: Pichia pastoris
Protocol: The glycosylation products were isolated from the radiolabeled donors through chromatographic techniques and analyzed by scintillation counting.
(§1) 347 4. BIOCHEMICAL STUDIES
(§2) 348 4.1. Reagents and substrates
(§3) 349 Stock solutions of inhibitor (5mM) and MUC1a substrate (4mM) were prepared from
(§4) 350 lyophilized powders. Additional serial dilutions of inhibitor were prepared of 1 mM, 200 µM, 50
(§5) 351 µM, 10 µM, and 2 µM and the MUC1a substrate of 62.5 µM. Fully N-acetylated UDP-
(§6) 352 [ 3H]GalNAc was obtained from American Radiolabeled Chemicals Inc (St. Louis, MO) whereas
(§7) 353 nonlabelled UDP-GalNAc was obtained from Millipore-Sigma (St. Louis, MO). A 0.2 mM stock
(§8) 354 solution of radiolabeled UDP-GalNAc was prepared by adding UDP-[ 3H]GalNAc to unlabeled
(§9) 355 UDP-GalNAc to give ~6 x 10^8 DPM/µmole. ScintiVerse BD Cocktail fluid was obtained from
(§10) 356 Fisher Scientific (Pittsburgh, PA). Liquid scintillation counting was performed on a Beckman
(§11) 357 LS 6500 Scintillation Counter. BioPureSPN TARGA C18 macro spin columns were obtained
(§12) 358 from The Nest Group Inc. (Ipswich, MA).
(§13) 360 4.2. GalNAc-Ts expression
(§14) 361 Human GalNAc-T1 was a gift of Kelley Moremen (CCRC, University of Georgia) and
(§15) 362 expressed in HEK293F cells. Human GalNAc-T2, and -T3 were obtained from Ramon
363 Hertado-Guerrero (University of Zaragosa, SP) and expressed in Pichia pastoris.
366 The glycomimetic inhibitors were optimized using GalNAc-T2 activity assays as previously
367 described. The reactions were carried out in a total volume of 50 µl, containing 100 nM
369 cpm/nm) as the sugar donor. The designed glycomimetics were tested at a range of
371 conducted in 25 mM cacodylate buffer (pH 7.4) with 10 mM MnCl 2 and 0.25% Triton X-100,
372 and incubated at 22°C for 30 minutes. Excess UDP-[ 14C]GalNAc was removed from the
373 glycosylated peptide using DOWEX 1 chromatography, the product was subsequently
374 analyzed through scintillation counting.
377 protocol was used except UDP-[ 3H]GalNAc was utilized and the products isolated on Targa
378 C18 spin columns as previously described. Final enzyme concentrations were 100 nM for
379 GalNAc-T1 and -T3 and 200 nM for GalNAc-T2 while final MUC1a substrate and inhibitor 5
380 concentrations were as above. Reactions were incubated at 22°C for 30min for GalNAc-T1
381 and -T3 and 3h for GalNAc-T2. After incubation, reactions were quenched with 200µL of 0.5%
382 TFA in H 2O and passed through the spin columns. Columns were extensively washed with
383 0.1% TFA/H 2O and glycopeptide products eluted with 0.1% TFA in 50/50 acetonitrile/H2O
384 followed by 100% acetonitrile. The different eluates were analyzed by scintillation counting on
385 a Beckman LS 6500 Scintillation Counter. Relative percent peptide glycosylation was
386 calculated from the obtained 3H DPM as described in Ballard et al 2023. Reactions were
387 repeated twice for each transferase. After subtracting the no substrate blank, under these
390 Percent activity was plotted against the log concentration of inhibitor 19 in µM. […]

GalNAc-T1 [2] = test system: GalNAc-T1; set-up: method as in Wandall H. H. et al., [16]; conditions: ref Wandall H. H. et al., [16], cited from earlier work
GalNAc-T2 [3] = test system: GalNAc-T2; set-up: method as in Wandall H. H. et al., [16]; conditions: ref Wandall H. H. et al., [16], cited from earlier work
GalNAc-T3 [4] = test system: GalNAc-T3; set-up: method as in Wandall H. H. et al., [16]; conditions: ref Wandall H. H. et al., [16], cited from earlier work
GalNAc-T1 [5] = target: T2, GalNAc-T1 (Homo sapiens, UniProt Q10472); test: Radiometric GalNAc-T1 inhibition assay with UDP-[3H]GalNAc and MUC1a acceptor peptide; type: biochemical
T2 construct: made in house; host or cells: HEK293F cells (gift of Kelley Moremen, CCRC, University of Georgia)
T2 sequence (Q10472 1-559): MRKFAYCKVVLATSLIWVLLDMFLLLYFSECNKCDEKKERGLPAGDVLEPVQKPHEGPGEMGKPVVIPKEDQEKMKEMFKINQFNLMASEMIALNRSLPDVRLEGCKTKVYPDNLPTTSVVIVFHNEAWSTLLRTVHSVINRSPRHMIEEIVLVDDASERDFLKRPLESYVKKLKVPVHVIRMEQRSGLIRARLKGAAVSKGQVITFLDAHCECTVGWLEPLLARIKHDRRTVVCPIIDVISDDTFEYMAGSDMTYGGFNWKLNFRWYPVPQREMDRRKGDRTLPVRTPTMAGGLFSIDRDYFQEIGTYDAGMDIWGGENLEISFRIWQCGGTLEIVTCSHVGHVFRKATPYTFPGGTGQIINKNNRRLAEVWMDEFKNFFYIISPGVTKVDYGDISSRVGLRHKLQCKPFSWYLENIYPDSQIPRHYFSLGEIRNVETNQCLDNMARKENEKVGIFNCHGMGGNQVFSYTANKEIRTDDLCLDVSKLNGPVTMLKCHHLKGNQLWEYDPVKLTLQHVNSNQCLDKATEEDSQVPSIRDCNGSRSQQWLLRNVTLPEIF
Protocol: as §1, §2, §3, §4, §5, §6, §7, §8, §9, §10, §11, §12, §13, §14, §15
(§16) 363 Hertado-Guerrero (University of Zaragosa, SP) and expressed in Pichia pastoris. […]
367 described. […]
(§17) 384 followed by 100% acetonitrile. The different eluates were analyzed by scintillation counting on […]
(§18) 386 calculated from the obtained 3H DPM as described in Ballard et al 2023. […]

GalNAc-T3 [6] = target: T3, GalNAc-T3 (Homo sapiens, UniProt Q14435); test: Radiometric GalNAc-T3 inhibition assay with UDP-[3H]GalNAc and MUC1a acceptor peptide; type: biochemical
T3 construct: made in house; host or cells: Pichia pastoris
T3 sequence (Q14435 1-633): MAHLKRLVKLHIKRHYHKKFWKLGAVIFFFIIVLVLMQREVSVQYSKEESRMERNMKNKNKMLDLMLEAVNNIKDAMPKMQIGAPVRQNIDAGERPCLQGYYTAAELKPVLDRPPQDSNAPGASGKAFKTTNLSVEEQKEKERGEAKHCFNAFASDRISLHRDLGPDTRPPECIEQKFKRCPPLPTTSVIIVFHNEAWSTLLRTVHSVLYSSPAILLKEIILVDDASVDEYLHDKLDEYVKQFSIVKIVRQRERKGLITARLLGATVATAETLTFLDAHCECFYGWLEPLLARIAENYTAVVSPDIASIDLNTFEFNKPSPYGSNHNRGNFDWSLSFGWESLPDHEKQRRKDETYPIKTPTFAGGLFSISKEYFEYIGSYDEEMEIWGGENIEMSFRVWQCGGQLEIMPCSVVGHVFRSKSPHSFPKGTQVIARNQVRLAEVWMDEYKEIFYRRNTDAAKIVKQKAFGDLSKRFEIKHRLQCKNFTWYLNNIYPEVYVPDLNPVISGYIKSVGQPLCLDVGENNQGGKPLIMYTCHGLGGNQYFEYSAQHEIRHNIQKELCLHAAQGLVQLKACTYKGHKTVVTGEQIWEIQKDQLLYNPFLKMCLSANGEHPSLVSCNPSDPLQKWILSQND
Protocol: as §1, §2, §3, §4, §5, §6, §7, §8, §9, §10, §11, §12, §13, §14, §15, §16, §17, §18

GalNAc-T2 [7] = test system: GalNAc-T2; set-up: method as in PMID 29061849; conditions: read-out: IC50 against GalNAc-T2; cited from earlier work
GalNAc-T3 [8] = test system: GalNAc-T3; set-up: method as in PMID 28362263; conditions: cited from earlier work
GalNAc-T2 [9] = test system: GalNAc-T2; set-up: method as in PMID 28362263; conditions: cited from earlier work
GalNAc-T6 = test system: GalNAc-T6; set-up: method as in PMID 28362263; conditions: cited from earlier work
FGF23 levels = test system: FGF23 levels; set-up: method as in PMID 28362263; conditions: chronic kidney disease treatment; cited from earlier work
[10] = calculated from IC50 by Cheng & Prusoff equation, MUC1a and UDP-GalNAc substrates

T1 sequence (Q10471 whole entry): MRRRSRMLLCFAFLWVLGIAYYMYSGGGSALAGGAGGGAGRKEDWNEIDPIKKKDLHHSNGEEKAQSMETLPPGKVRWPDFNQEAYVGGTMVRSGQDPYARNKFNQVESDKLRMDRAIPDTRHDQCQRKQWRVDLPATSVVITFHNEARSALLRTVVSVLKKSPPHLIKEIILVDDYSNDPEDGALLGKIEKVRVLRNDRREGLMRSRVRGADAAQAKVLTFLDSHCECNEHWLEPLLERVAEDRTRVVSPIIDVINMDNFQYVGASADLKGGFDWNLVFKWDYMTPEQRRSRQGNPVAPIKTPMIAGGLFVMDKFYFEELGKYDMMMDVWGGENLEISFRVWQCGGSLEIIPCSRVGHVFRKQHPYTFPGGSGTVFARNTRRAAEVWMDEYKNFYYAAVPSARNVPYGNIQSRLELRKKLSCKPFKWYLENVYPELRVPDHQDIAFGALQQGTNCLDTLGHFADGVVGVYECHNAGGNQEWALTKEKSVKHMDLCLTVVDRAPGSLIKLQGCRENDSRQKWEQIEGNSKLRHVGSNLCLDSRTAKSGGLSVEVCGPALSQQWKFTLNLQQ

Compound: OCc1cccs1 [Compound 5, 2-thiophenemethanol]
- Relative inhibitory activity against GalNAc-T2 (GalNAc-T2 [1]; MUC1a as acceptor substrate): unable to inhibit the enzyme

Compound: MUC1a: model peptide acceptor substrate with sequence AHGVTSAPDTR
- Km (GalNAc-T1 [2]; read-out: Km(MUC1a) GalNAc-T1): 660 µM
- Km (GalNAc-T2 [3]; read-out: Km(MUC1a) GalNAc-T2): 2130 µM
- Km (GalNAc-T3 [4]; read-out: Km(MUC1a) GalNAc-T3): 90 µM

Compound: CC(=O)N[C@H]1[C@@H](O[C@H](C)[C@H](NC(=O)[C@H](C)NC(=O)[C@H](C)NC(=O)[C@@H](NC(=O)[C@H](CC(C)C)NC(=O)[C@@H]2CCCN2C(=O)[C@H](CC(C)C)NC(=O)[C@@H]2CCCN2C(=O)[C@H](CSCc2cccs2)NC(=O)[C@@H]2CCCN2)C(C)C)C(=O)N[C@@H](C)C(=O)N[C@@H](C)C(N)=O)O[C@H](CO)[C@H](O)[C@@H]1O [Compound 19] (H-PC(X1)PLPLVAAT(αGalNAc)AA-NH2)
- IC50 (GalNAc-T2 [1]): 21.4 ± 4.1 µM
- IC50 (GalNAc-T1 [5]; MUC1a as acceptor substrate, read-out: IC50 against GalNAc-T1): 678 ± 197 µM
- Ki (GalNAc-T1 [5]; [10]): 668 µM
- IC50 (GalNAc-T3 [6]; MUC1a as acceptor substrate, read-out: IC50 against GalNAc-T3): 171 ± 62.2 µM
- Ki (GalNAc-T3 [6]; [10]): 154 µM

Compound: thiophene [Compound 15]
- Relative inhibitory activity against GalNAc-T2 (GalNAc-T2 [1]; MUC1a as acceptor substrate): unable to inhibit the enzyme

Compound: CC(=O)N[C@H]1[C@@H](O[C@H](C)[C@H](NC(=O)[C@H](C)NC(=O)[C@H](C)NC(=O)[C@H](C)NC(=O)[C@H](C)NC(=O)[C@@H]2CCCN2C(=O)[C@@H](NC(=O)[C@@H]2CCCN2C(=O)[C@H](CSCc2cccs2)NC(=O)[C@@H]2CCCN2C(=O)[C@H](C)NC(=O)[C@H](C)NC(=O)CN)C(C)C)C(=O)N[C@@H](C)C(=O)N[C@@H](C)C(N)=O)O[C@H](CO)[C@H](O)[C@@H]1O [Compound 3] (H-GAAPC(X1)PVPAAAAT(αGalNAc)AA-NH2)
- IC50 (GalNAc-T2 [1]): 84.5 ± 25.9 µM

Compound: CC(=O)N[C@H]1[C@@H](OP(=O)(O)OP(=O)(O)OC[C@H]2O[C@@H](n3ccc(=O)[nH]c3=O)[C@H](O)[C@@H]2O)O[C@H](CO)[C@H](O)[C@@H]1O [UDP-GalNAc, uridine diphosphate-GalNAc]
- Km (GalNAc-T1 [2]; read-out: Km(UDP-GalNAc) GalNAc-T1): 62 µM
- Km (GalNAc-T2 [3]; read-out: Km(UDP-GalNAc) GalNAc-T2): 10 µM
- Km (GalNAc-T3 [4]; read-out: Km(UDP-GalNAc) GalNAc-T3): 29 µM

Compound: O=c1cc(-c2ccc(O)c(O)c2)oc2cc(O)cc(O)c12 [luteolin]
- IC50 (GalNAc-T2 [7]): 14.7 µM

Compound: N[C@@H](CSCc1cccs1)C(=O)O [Compound 16]
- Relative inhibitory activity against GalNAc-T2 (GalNAc-T2 [1]; MUC1a as acceptor substrate): unable to inhibit the enzyme

Compound: O=C(Nc1ccc(Nc2ccncc2)cc1)c1ccc(Nc2ccnc3ccc([N+](=O)[O-])cc23)cc1 [T3Inh-1]
- Activity against GalNAc-T3 (GalNAc-T3 [8]): can act against GalNAc-T3
- Activity against T2 variant (GalNAc-T2 [9]): no activity
- Activity against T6 variant (GalNAc-T6): no activity
- FGF23 levels in mice (FGF23 levels): lower the FGF23 levels

Compound: CC(=O)N[C@H]1[C@@H](O[C@H](C)[C@H](NC(=O)[C@H](C)NC(=O)[C@H](C)NC(=O)[C@H](C)NC(=O)[C@H](C)NC(=O)[C@@H]2CCCN2C(=O)[C@H](Cc2c[nH]c3ccccc23)NC(=O)[C@@H]2CCCN2C(=O)[C@H](CSCc2cccs2)NC(=O)[C@@H]2CCCN2)C(=O)N[C@@H](C)C(=O)N[C@@H](C)C(N)=O)O[C@H](CO)[C@H](O)[C@@H]1O [Compound 18] (H-PC(X1)PWPAAAAT(αGalNAc)AA-NH2)
- IC50 (GalNAc-T2 [1]; MUC1a as acceptor substrate, read-out: IC50 against GalNAc-T2): 55.7 ± 31.5 µM

Compound: CC(=O)N[C@H]1[C@@H](O[C@H](C)[C@H](NC(=O)[C@H](C)NC(=O)[C@H](C)NC(=O)[C@H](C)NC(=O)[C@H](C)NC(=O)[C@@H]2CCCN2C(=O)[C@@H](NC(=O)[C@@H]2CCCN2C(=O)[C@H](CSCc2ccc3ccccc3n2)NC(=O)[C@@H]2CCCN2C(=O)[C@H](C)NC(=O)[C@H](C)NC(=O)CN)C(C)C)C(=O)N[C@@H](C)C(=O)N[C@@H](C)C(N)=O)O[C@H](CO)[C@H](O)[C@@H]1O [Compound 2] (H-GAAPC(X2)PVPAAAAT(αGalNAc)AA-NH2)
- IC50 (GalNAc-T2 [1]): 396 ± 172 µM
